Results as given in ChEMBL document CHEMBL1154702, “Enhancement of the antimalarial activity of ciprofloxacin using a double prodrug/bioorganometallic approach” (J Med Chem, 2009).

Key:
Plasmodium falciparum [1] = experiment: Antimalarial activity against Plasmodium falciparum NF54; format: functional, organism-based
Plasmodium falciparum [2] = experiment: Antimalarial activity against Plasmodium falciparum 3D7; format: functional, organism-based
Plasmodium falciparum [3] = experiment: Antimalarial activity against chloroquine-sensitive Plasmodium falciparum 3D7 infected in erythrocytes after 48 hrs by [3H]hypoxanthine incorporation assay; format: functional, organism-based
[4] = Therapeutic index, ratio of IC50 for concanavalin-stimulated BALB/c mice (Mus musculus) splenocytes to IC50 for Plasmodium falciparum W2 after 48 hrs; conditions: read-out: Ratio IC50
[5] = Cytotoxicity against concanavalin-stimulated BALB/c mouse splenocytes after 72 hrs by resazurin dye reduction method; format: cell-based; conditions: Splenocyte
Plasmodium falciparum [6] = experiment: Antimalarial activity against chloroquine-sensitive Plasmodium falciparum 3D7 infected in erythrocytes after 96 hrs by [3H]hypoxanthine incorporation assay; format: functional, organism-based
[7] = Therapeutic index, ratio of IC50 for concanavalin-stimulated BALB/c mice (Mus musculus) splenocytes to IC50 for Plasmodium falciparum 3D7; conditions: read-out: Ratio IC50
Plasmodium falciparum [8] = experiment: Antimalarial activity against chloroquine-resistant Plasmodium falciparum W2 infected in erythrocytes after 48 hrs by [3H]hypoxanthine incorporation assay; format: functional, organism-based
Plasmodium falciparum [9] = experiment: Antimalarial activity against chloroquine-resistant Plasmodium falciparum W2 infected in erythrocytes after 96 hrs by [3H]hypoxanthine incorporation assay; format: functional, organism-based
Plasmodium falciparum [10] = experiment: Antimalarial activity against […] Plasmodium falciparum IMT K2 infected in erythrocytes after 48 hrs by [3H]hypoxanthine incorporation assay; format: functional, organism-based
Plasmodium falciparum [11] = experiment: Antimalarial activity against chloroquine-sensitive Plasmodium falciparum PA infected in erythrocytes after 48 hrs by [3H]hypoxanthine incorporation assay; format: functional, organism-based
Plasmodium falciparum [12] = experiment: Antimalarial activity against chloroquine-sensitive Plasmodium falciparum IMTVo1 infected in erythrocytes after 48 hrs by [3H]hypoxanthine incorporation assay; format: functional, organism-based
Plasmodium falciparum [13] = experiment: Antimalarial activity against chloroquine-sensitive Plasmodium falciparum FCR3 infected in erythrocytes after 48 hrs by [3H]hypoxanthine incorporation assay; format: functional, cell-based; conditions: FCR-3/Gambia
Plasmodium falciparum [14] = experiment: Antimalarial activity against chloroquine-sensitive Plasmodium falciparum FCM29 infected in erythrocytes after 48 hrs by [3H]hypoxanthine incorporation assay; format: functional, organism-based
Plasmodium falciparum [15] = experiment: Antimalarial activity against chloroquine-sensitive Plasmodium falciparum IMTL1 infected in erythrocytes after 48 hrs by [3H]hypoxanthine incorporation assay; format: functional, organism-based
Plasmodium falciparum [16] = experiment: Antimalarial activity against chloroquine-sensitive Plasmodium falciparum IMT10500 infected in erythrocytes after 48 hrs by [3H]hypoxanthine incorporation assay; format: functional, organism-based

| Compound | IC50 (Plasmodium falciparum [1]) [µM] | IC50 (Plasmodium falciparum [2]) [µM] | IC50 (Plasmodium falciparum [3]) [µM] | IC50 [5] [µM] | IC50 (Plasmodium falciparum [6]) [µM] | IC50 (Plasmodium falciparum [8]) [µM] | IC50 (Plasmodium falciparum [9]) [µM] | IC50 (Plasmodium falciparum [10]) [µM] | IC50 (Plasmodium falciparum [11]) [µM] | IC50 (Plasmodium falciparum [14]) [µM] | IC50 (Plasmodium falciparum [15]) [µM] | also measured |
| --- | --- | --- | --- | --- | --- | --- | --- | --- | --- | --- | --- | --- |
| Cc1c(F)c(N2CCNC(C)C2)cc2c1c(=O)c(C(=O)O)cn2C1CC1 (stereo unspecified) [GREPAFLOXACIN] | ≥ 10 | ≥ 10 | – | – | – | – | – | – | – | – | – | – |
| CCOC(=O)c1cn(C2CC2)c2cc(N3CCNCC3)c(F)cc2c1=O [CIPROFLOXACIN ETHYL ESTER] | ≥ 10 | ≥ 10 | 3.1 | > 40 | 1.6 | 3.9 | 3.1 | – | – | – | – | selectivity ratio at 48 h [4]: > 10.2; selectivity ratio [7]: > 12.9 |
| C[C@H]1[C@H](OC(=O)CCC(=O)O)O[C@@H]2O[C@@]3(C)CC[C@H]4[C@H](C)CC[C@@H]1[C@@]24OO3 [ARTESUNATE] | – | – | 1.7 | – | 2 | 2.4 | 2.1 | 0.0018 | 0.002 | – | – | – |
| COc1c(N2CCNC(C)C2)c(F)cc2c(=O)c(C(=O)O)cn(C3CC3)c12 (stereo unspecified) [GATIFLOXACIN] | ≥ 10 | ≥ 10 | – | – | – | – | – | – | – | – | – | – |
| C=C[C@H]1CN2CC[C@H]1C[C@H]2[C@H](O)c1ccnc2ccc(OC)cc12 [QUININE] | – | – | 186 | – | – | 520 | 456 | 0.0067 | 0.571 | 0.0058 | 0.543 | IC50 (Plasmodium falciparum [12]; read-out: IC50): 0.428 µM; IC50 (Plasmodium falciparum [13]; read-out: IC50): 0.65 µM |
| COc1c(N2C[C@@H]3CCCN[C@@H]3C2)c(F)cc2c(=O)c(C(=O)O)cn(C3CC3)c12 [MOXIFLOXACIN] | ≥ 10 | ≥ 10 | – | – | – | – | – | – | – | – | – | – |
| C[C@H]1c2cccc(O)c2C(=O)C2=C(O)[C@]3(O)C(=O)C(C(N)=O)=C(O)[C@@H](N(C)C)[C@@H]3[C@@H](O)[C@@H]21 [DOXYCYCLINE] | – | – | 12 | – | 1.7 | 10.7 | 1.2 | 14.9 | 12.9 | 11.1 | 8.4 | IC50 (Plasmodium falciparum [16]; read-out: IC50): 13.3 µM; IC50 (Plasmodium falciparum [12]; read-out: IC50): 9.1 µM; IC50 (Plasmodium falciparum [13]; read-out: IC50): 9.7 µM |
| O=C(O)c1cn(C2CC2)c2cc(N3CCNCC3)c(F)cc2c1=O [CIPROFLOXACIN] | – | – | 45.9 | > 40 | 10.1 | 119 | 14.1 | 80.8 | 45.5 | 45.6 | 41.3 | IC50 (Plasmodium falciparum [16]): 74.8 µM; IC50 (Plasmodium falciparum [12]): 51.6 µM; IC50 (Plasmodium falciparum [13]): 74.3 µM; selectivity ratio at 48 h [4]: > 0.3; selectivity ratio [7]: > 0.8 |
| CCN(CC)CCCC(C)Nc1ccnc2cc(Cl)ccc12 (stereo unspecified) [CHLOROQUINE] | – | – | – | 3.46 | – | – | – | – | – | – | – | – |
